Laboratory results taken from US5099030A, “Novel compounds, pharmaceutical compositions, and methods for treating inflammation and pain” (The Procter & Gamble Company, priority 1991, dated 1992).

Tests used:
[1] = Oral soft gelatin capsules in human (Example VIII); assay type: in vivo; conditions: two oral capsules, 225 mg of composition each, 60 kg human
Method: (§1) A composition for oral administration is prepared by combining the following ingredients:
The octadecenamide is dissolved in the sesame oil with the aid of sonication and is packaged in soft gelatin capsules using methods known in the art.

[2] = Rodent Hot Plate Test; assay type: in vivo, male Sprague-Dawley rats
Method: The degree of thermal analgesia obtained is determined using the "rodent hot plate test" (RHP). The RHP system is designed to detect and evaluate agents which elevate the threshold for the perception of pain. Classically, this method has been utilized primarily to evaluate opioid (narcotic) analgesic agents, such as morphine.
Male Sprague-Dawley rats (Charles River Breeding Laboratories Inc.) weighing between 100 and 125 grams upon arrival are used to evaluate the compounds of the present invention. Animals are double housed in stainless steel cages, and are fed Purina Rat Chow and tap water ad libitum. The animals are food fasted the afternoon proceeding the day of the study, and food is returned 5 hours post-treatment. Animals not being dosed by oral gavage are not fasted.
The apparatus for evaluating analgesic activity consists of an insulated copper hot plate whose surface is maintained at 55°±0.5° C. by a circulating water bath. A bottomless glass container (12" (30 cm) tall by 8" (20 cm) diameter) is used to restrict the animal to a defined area of the hot plate. After dosing, the animal is placed through the top opening of the container, and a stop watch is started when the animal makes contact with the plate. The stop-watch is stopped upon either of the following visually observed end points: (1) licking or biting of either hind paw, or (2) jumping. If the jump is not successful but both hind paws leave the surface of the plate in an effort to jump, this is considered jumping. The stop-watch is stopped at the end point and the animal is immediately removed from the hot plate. The time (latency) between the initial contact of the animal on the hot plate and the endpoint is recorded.
Prior to dosing, animals are tested on the hot plate. This is denoted as pretest or base line latency. Usually, the animals are dosed by oral gavage, using a 1 cubic cm glass syringe connected to a size 8 french catheter. The dose volume is 5 ml/kg. On occasion, the animals are dosed by either subcutaneous administration or intravenous injection. Using the subcutaneous administration, a 1 ml tuberculin syringe is connected to a 25 gauge 5/8 inch needle, and injected under the skin in the neck or back region. For intravenous dosing, a 1 ml tuberculin syringe is connected to a 25 gauge 3/4 inch winged infusion set, and injected into the tail vein. The dose volume for subcutaneous and intravenous routes is 1 ml/kg. The latency times are typically recorded at 1.5, 3, 5, and 24 hours post-treatment. Much shorter times are recorded for an intravenous administration.

[3] = Mouse Abdominal Constriction Assay (phenylquinone writhing); assay type: in vivo, male CF-1 mice; conditions: for % Analgesia: 1.5 h post-dose
Method: Compounds of the present invention are tested for analgesic activity using the mouse abdominal constriction assay. This assay is described in Hendershot and Forsaith, J. Pharmacol. Exo.
Male CF-1 mice (Charles River Breeding Laboratories, Inc.), weighing approximately 20 grams and food fasted overnight, are used in these assays. Test compounds are prepared for oral (p.o.) or subcutaneous (s.c.) administration, with compounds of the present invention being prepared in acidified (1N acetic acid) distilled deionized water so that the appropriate dose is given in 0.2 mls to a 20 gram mouse.
Ten minutes after the i.p. injection of phenylquinone, the number of full body writhes are counted for the succeeding ten minutes. Percent analgesia in this assay is calculated as follows: [formula]

[4] = Oral syrup in human (Example IX); assay type: in vivo; conditions: one teaspoon of syrup, 70 kg adult human
Method: as §1
The above ingredients are combined to produce a syrup and are packaged under sterile conditions in 6 oz. bottles.

[5] = Carrageenan Rat Paw Edema Test; assay type: in vivo, male Sprague Dawley rats; conditions: oral (stomach tube), 1 h before carrageenan, paw volume 4 h after carrageenan
Method: Compounds of the present invention are tested for anti-inflammatory activity using the Carrageenan Rat Paw Edema Test.
Male Sprague Dawley rats (Charles River Breeding Laboratories Inc.) are weighed and food fasted overnight. The animals are divided into four to six groups of six animals each according to body weights, average about 145 g, so that each group has about the same average weight (within 10 g).
The following morning five ml of water is dosed orally via stomach tube to each animal to facilitate paw swelling. Thirty minutes later the animals are dosed with the test compound and then placed in individual cages. The compound of the present invention is dissolved in distilled deionized water with 1 equivalent of 1N acetic acid and delivered via stomach tube in 1 ml volume.
One hour after dosing the test compound, the animals are placed in a plastic restrainer and 50 ul of a 1% (w/w) carrageenan solution in 0.9% saline is injected into the ventral surface of the left rear paw. Paw volumes (0 time) are determined on both hind paws with a mercury displacement device equipped with a transducer and digitizer following the carrageenan injection. Four hours after the carrageenan injection, the paw volumes are again determined.
The results are expressed as percent inhibition of the mean paw volume of the test group relative to the control group according to the formula:
(C-T a..n)/C×100=Percent Inhibition
where C is the average difference in paw volume before and after carrageenan-induced swelling, and
Ta..n is the difference in paw swelling in the treated animals (a..n). Statistical differences are determined by one way analysis of variance.

[6] = unless administered in toxic quantities; antipyretic analgesics; cited from earlier work
[7] = Topical application to human forearm (Example X); assay type: in vivo; conditions: replacing N-((4-(2-methyl-2-aminopropoxy)-3-methoxyphenyl)-methyl)-9Z-octadecenamide
Method: A composition for topical administration is prepared by combining the following ingredients:
The octadecenamide is dissolved in a solution containing the other ingredients. Application of 0.4 ml of the resulting liquid to a 80 cm^2 portion of the forearm of a 60 kg human produces local analgesia which lasts approximately two days.

CCCCCCCC/C=C\CCCCCCCC(=O)NCc1ccc(OCCN)c(OC)c1 [N-((4-(2-aminoethoxy)-3-methoxyphenyl)-methyl)-9Z-octadecenamide]
analgesia [1]: producing analogesia | reduction of inflammation [1]: reducing inflammation | Mean Latency Times ([2]; 75 mg/kg oral, 1.5 hr post dose): 21.8 s | Mean Latency Times ([2]; 75 mg/kg oral, 3 hr post dose): 18.9 s | Mean Latency Times ([2]; 75 mg/kg oral, 5 hr post dose): 18.7 s | Mean Latency Times ([2]; 75 mg/kg oral, 24 hr post dose): 11.2 s | Mean Latency Times ([2]; 150 mg/kg oral, 1.5 hr post dose): 30.6 s | Mean Latency Times ([2]; 150 mg/kg oral, 3 hr post dose): 18.9 s | Mean Latency Times ([2]; 150 mg/kg oral, 5 hr post dose): 15.0 s | Mean Latency Times ([2]; 150 mg/kg oral, 24 hr post dose): 11.5 s | Mean Latency Times ([2]; 300 mg/kg oral, 1.5 hr post dose): 30.7 s | Mean Latency Times ([2]; 300 mg/kg oral, 3 hr post dose): 22.6 s | Mean Latency Times ([2]; 300 mg/kg oral, 5 hr post dose): 21.0 s | Mean Latency Times ([2]; 300 mg/kg oral, 24 hr post dose): 16.5 s | potency and efficacy relative to codeine ([2]; oral): at least as potent and efficacious as the known opiate codeine | % Analgesia ([3]; 1 mg/kg subcutaneous): 22.3% | % Analgesia ([3]; 2 mg/kg subcutaneous): -13.7% | % Analgesia ([3]; 4 mg/kg subcutaneous): 34.3% | % Analgesia ([3]; 8 mg/kg subcutaneous): 57.8% | % Analgesia ([3]; 10 mg/kg oral): 55.8% | % Analgesia ([3]; 10 mg/kg subcutaneous): 91.4% | % Analgesia ([3]; 25 mg/kg oral): 71.7% | % Analgesia ([3]; 75 mg/kg oral): 88.3% | % Analgesia ([3]; 100 mg/kg subcutaneous): 99.0% | % Analgesia ([3]; 150 mg/kg oral): 95.5% | % Analgesia ([3]; 300 mg/kg oral): 93.2% | analgesic potency compared with N-vanillyloleamide ([3]; oral, at a substantially lower dose): substantially greater analgesic potency at a substantially lower dose | analgesia [4]: substantially similar reduction of inflammation and analgesic effect | reduction of inflammation [4]: substantially similar reduction of inflammation | % Inhibition (of paw volume/swelling vs control) ([5]; 25 mg/kg): 53.5% | % Inhibition (of paw volume/swelling vs control) ([5]; 50 mg/kg): 73.7% | % Inhibition (of paw volume/swelling vs control) ([5]; 100 mg/kg): 64.9% | % Inhibition (of paw volume/swelling vs control) ([5]; 200 mg/kg): 61.4%

CC(=O)Oc1ccccc1C(=O)O [aspirin]
activity in the RHP system [6]: little or no activity

CCCCCCCC/C=C\CCCCCCCCNC(=O)Cc1ccc(OCCN)c(OC)c1 [N-(9Z-octadecenyl)-4-(2-aminoethoxy)-3-methoxyphenylacetamide]
analgesia [1]: increased analgesic effect | reduction of inflammation [1]: substantially similar reduction of inflammation | Mean Latency Times ([2]; 10 mg/kg oral, 1.5 hr post dose): 6.7 s | Mean Latency Times ([2]; 10 mg/kg oral, 3 hr post dose): 15.3 s | Mean Latency Times ([2]; 10 mg/kg oral, 5 hr post dose): 13.5 s | Mean Latency Times ([2]; 10 mg/kg oral, 24 hr post dose): 9.1 s | Mean Latency Times ([2]; 25 mg/kg oral, 1.5 hr post dose): 10.5 s | Mean Latency Times ([2]; 25 mg/kg oral, 3 hr post dose): 11.2 s | Mean Latency Times ([2]; 25 mg/kg oral, 5 hr post dose): 10.8 s | Mean Latency Times ([2]; 25 mg/kg oral, 24 hr post dose): 8.0 s | Mean Latency Times ([2]; 50 mg/kg oral, 1.5 hr post dose): 24.5 s | Mean Latency Times ([2]; 50 mg/kg oral, 3 hr post dose): 12.2 s | Mean Latency Times ([2]; 50 mg/kg oral, 5 hr post dose): 10.6 s | Mean Latency Times ([2]; 50 mg/kg oral, 24 hr post dose): 15.9 s | Mean Latency Times ([2]; 100 mg/kg oral, 1.5 hr post dose): 16.4 s | Mean Latency Times ([2]; 100 mg/kg oral, 3 hr post dose): 13.4 s | Mean Latency Times ([2]; 100 mg/kg oral, 5 hr post dose): 11.9 s | Mean Latency Times ([2]; 100 mg/kg oral, 24 hr post dose): 21.5 s | local analgesic effect [7]: substantially similar local analgesic effect | analgesia [4]: producing analgesia | reduction of inflammation [4]: reducing inflammation

CC(=O)Nc1ccc(O)cc1 [acetaminophen]
activity in the RHP system [6]: little or no activity
